In patent US5298502A, “Method and composition for photodynamic treatment and detection of tumors” (priority 1991, dated 1994):

Experiments:
[1] = system: DBA/2 Ha mice with SMT-F subcutaneous tumors; assay: Proto IX content of tissues of tumor-bearing mice fed the agent (Example 6); format: in vivo
Outline: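 DBA/2 Ha mice bearing subcutaneous SMT-F tumors fed mash with 2000 ppm agent on Days 2-10, controls untreated; sacrifice Day 10 (one agent Day 7). Kidney, intestine, adrenal, liver and tumor extracted in acetone-0.1 N NH4OH (9:1); Proto IX by fluorescence (ex 400/em 630 nm) as CPS per g tissue.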

[2] = LD50, single oral dose, mice; conditions: mouse, in vivo, single oral dose in corn oil and 5% of the agent, 14-day period
[3] = Tolerance of intraperitoneal injection in mice; conditions: mouse, in vivo, ip, 60% corn oil and 40% DMSO, read-out: tolerated dose
Description: c. In tests of the agent injected intraperitoneally in a mixture of 60% corn oil and 40% DMSO it was determined that the mice could tolerate a dose of 100 mg/kg.

[4] = system: HeLa cells; assay: Proto IX production in HeLa cells, extract of cells alone (Example 7); format: cell-based; conditions: Homo sapiens, 100 uM agent, first formula (background-subtracted), read-out: increase in the amount of Proto IX relative to the control
Description: In a series of experiments along the lines of Examples 1 and 2, cultures of HeLa cells were incubated in the presence of 100 uM of various treating agents, listed below. The percentage given, next to each treating agent, indicates the increase in the amount of Proto IX produced in the presence of that treating agent relative to the amount produced by the control in the same experiment.
As in Examples 1 and 2, the data for this Example 7 were based on measurements of fluorescence (e.g. in counts per second, "cps"). In this Example, however, the measurements were made on an extract of the cells alone (in contrast to Examples 1 and 2 in which the disrupted cells and culture medium together were extracted), the fluorometric medium was the one described in Example 5 (containing 1% Tween-20, 50 mM Tris-HCl, 1 mM EDTA and 1 mM dithioerythritol, pH 8.5), and a cps measurement of the fluorometric medium per se was also made. In calculating the foregoing data for this Example, the following formula was used to calculate the percentage increases: [formula] where Ca is the counts per second for the sample resulting from treatment with the agent, Cc is the counts per second for the control sample, and Cm is the counts per second for the fluorometric medium per se (i.e. the background fluoroescence). On reviewing the data it was observed that Cc -Cm for this set of experiments was […] compared to Cm; for instance, individual measured values were 49025 and 52069 for Cc and 4295 for Cm. […] Accordingly, the data were recalculated using the formula: [formula] with the following results: 6a 336%; 5b 148%; 6c 154%; 6d 510%; 6e 320%; 6f 280%; 6g 329%; 6h 178%; 6i 171%; 6j 185%; 7a 118%; 7b 142%; 7c 103%; 7d 128%; 7e 173%; 7f 118%; 7q 155%; 7h 118%.

[5] = system: SMT-F tumor; assay: Photodynamic treatment of SMT-F tumor in mice fed the agent (Example 10); format: in vivo, female DBA/2 mice
Excerpt: In this Example preliminary routine dosage experiments, using agent 6c of Example 6, were made, using female DBA/2 mice, four to six weeks old (14-18 grams). For tumor implantation into these animals, SMT-F tumor was aseptically removed from donor animals and cut into 1 mm^3 fragments. These tumor pieces were placed in Hank's Balanced Salt Solution containing penicillin and streptomycin. Tumor pieces were implanted via a torchar into the center of the right flank of shaved mice. […] The skin covering and surrounding the tumor was shaved and depilated two to three hours prior to light treatment.
The light treatment employed red light centered on 630 nm obtained from 1000 watt Xenon arc lamp system (Oriel Corporation) using a condenser which focused the light into a trifurcated fiberoptic bundle. A collimating lens was placed at the end of each fiberoptic in order to focus the image of the fiberoptic bundle on the treatment area: a spot of […] (1.33 cm^2). The design of the fiberoptic bundle ensured uniform distribution of light over this area. The output spectrum of the arc lamp was tuned to a peak intensity of 630 nm (602-670 nm range) using a water filter, a heat reflecting filter, and a 610 nm long pass filter. Light was delivered at a power density of 135 mW/cm^2. The possibility of tissue hyperthermia induced by this power density was evaluated by placing thermocouples at selected depths into the tumor during treatment, and measuring any temperature rise. No increase in tumor temperature greater than 2.4° C. (final temperature of 37.5°C.) was observed. During the light treatment the mice were restrained without anesthesia in specially designed holders and the tumors and surrounding skin were exposed to light to different degrees, from 0 to 600 J/cm^2. […]
In the course of the experiment the porphyrin fluorescence at 650 nm of the tumors (on exposure to fluorescing-inducing light at 630 nm) was measured with a fluorescence photometer.

[6] = 2000 ppm in feed Days 2-10, sacrificed Day 10 (6j Day 7)

## Cc1nn(-c2cc(NS(C)(=O)=O)c(Cl)cc2Cl)c(=O)n1C(F)F [Agent 6c]
[1]; 2000 ppm in feed
  concentration of Proto IX in tissue, Adrenal: 126 ug of Proto IX per gram of tis
  concentration of Proto IX in tissue, Intestine: 91 ug of Proto IX per gram of tis
  concentration of Proto IX in tissue, Kidneys: 148 ug of Proto IX per gram of tis
  concentration of Proto IX in tissue, Liver: 25 ug of Proto IX per gram of tis
  concentration of Proto IX in tissue, Tumor: 131 ug of Proto IX per gram of tis
[1]; [6]
  Proto IX Mean Cps per gram, Adrenal: 13790 Cps per gram × 10^3
  Proto IX Mean Cps per gram, Kidneys: 16186 Cps per gram × 10^3
  Proto IX Mean Cps per gram, Liver: 2739 Cps per gram × 10^3
  Proto IX Mean Cps per gram, Tumor: 14336 Cps per gram × 10^3
  Weight of Tumor as excised: 157 mg
[1]; 2000 ppm in feed, samples diluted with 3 parts basic acetone to one part sample
  Proto IX Mean Cps per gram, Intestine: 9937 Cps per gram × 10^3
[2]
  LD50 at 336 h: > 700 mg/kg
[3]
  MTD: 100 mg/kg
[4]
  activation at 100 µM: 297%
[5]; 4000 ppm in feed for three days, 450 J/cm^2 of light
  mice with tumors cured (tumor free at 35 days post-treatment): about 33%
[5]; agent in feed
  porphyrin fluorescence of the tumors at 650 nm: All animals showed an increase in tumor fluorescence
[5]; mouse, in vivo
  tumor regrowth between 35 and 91 days post-treatment: No tumor regrowth
